From patent US20240207288A1, “METHODS OF TREATING ESOPHAGEAL STRICTURES” (Ellodi Pharmaceuticals, L.P., priority 2021, published 2024)
Like-named read-outs stand apart in the source and are kept apart here.

Tests used:
[1] = cited from earlier work
[2] = test system: subjects with strictures and/or rings and EoE; experiment: Clinical trial of FP ODT: endoscopy (EREFS, strictures, rings); assay type: in vivo, human; conditions: for Stricture and Grade 2 Rings at Week 12, % / Stricture at Week 12, % / Stricture or Grade 2 Rings at Week 12, % / Subjects with new strictures and/or rings at Week 12, % / Endoscopy Responder Rate (overall EFEFS score ≤4), %: subgroup with strictures and/or Grade 2 rings at baseline; for Endoscopy Responder Rate (overall EFEFS score ≤4), %: Week 12
Excerpt: In some embodiments, the strictures and/or rings are diagnosed using EoE Endoscopic Reference Score (EREFS), which measures edema (e.g., decreased vascularity or pallot), rings present, exudates (e.g., white plaques), furrows, and/or stricture in the esophagus according to Table 1. In embodiments, the patient also has a grade 2 or grade 3 ring.
In some embodiments, the methods of the present disclosure cause an improvement in a patient's EoE Endoscopic Reference score (EREFS). The EREFS identifies the severity of five endoscopic findings: edema, rings, exudates, furrows, and strictures. The EREFS classification system rates the severity of each of the endoscopic findings. The severity of edema is rated on a scale from 0 to 2. The severity of rings is rated from 0 to 3. The severity of exudates is rated from 0 to 2. The severity of furrows is rated from 0 to 2. The severity of strictures is rated from 0 to 1. The absence of a finding corresponds to a score of 0. The presence of a finding corresponds to a score of 1, 2, or 3. A higher score is correlated with higher severity. In some embodiments, the composite EREFS score, or the sum of the individual scores, is utilized to indicate the severity of EoE. In some embodiments, the inflammatory EREFS score, or the sum of the individual edeme, exudate, and furrows score, is utilized to indicate the severity of EoE. In some embodiments, a higher inflammatory or composite EREFS score corresponds to the severity of EoE. In some embodiments, the inflammatory or composite EREFS score decreases after treatment with a corticosteroid according to the methods of the disclosure. In some embodiments the inflammatory or composite EREFS score decreases by 0.1, or about 0.2, or about 0.3, or about 0.4, or about 0.5, or about 0.6, or about 0.7, or about 0.8, or about 0.9, or about 1.0, or about 1.1, or about 1.2, or about 1.3, or about 1.4, or about 1.5, or about 1.6, or about 1.7, or about 1.8, or about 1.9, or about 2.0, or about 2.1, or about 2.2, or about 2.3, or about 2.4, or about 2.5, or about 2.6, or about 2.7, or about 2.8, or about 2.9, or about 3.0, or about 3.1, or about 3.2, or about 3.3, or about 3.4, or about 3.5, or about 3.6, or about 3.7, or about 3.8, or about 3.9, or about 4.0, or about 4.1, or about 4.2, or about 4.3, or about 4.4, or about 4.5, or about 4.6, or about 4.7, or about 4.8, or about 4.9, or about 5.0, or about 5.1, or about 5.2, or about 5.3, or about 5.4, or about 5.5, or about 5.6, or about 5.7, or about 5.8, or about 5.9, or about 6.0, or about 6.1, or about 6.2, or about 6.3, or about 6.4, or about 6.5, or about 6.6, or about 6.7, or about 6.8, or about 6.9, or about 7.0, or about 7.1, or about 7.2, or about 7.3, or about 7.4, or about 7.5, or about 7.6, or about 7.7, or about 7.8, or about 7.9, or about 8.0, or about 8.1, or about 8.2, or about 8.3, or about 8.4, or about 8.5, or about 8.6, or about 8.7, or about 8.8, or about 8.9, or about 9.0, or about 9.1, or about 9.2, or about 9.3, or about 9.4, or about 9.5, or about 9.6, or about 9.7, or about 9.8, or about 9.9, or about 10.0 points, or more, inclusive of all ranges between these values. In some embodiments, the EREFS score decreases by 1%, or 5%, or 10%, or 15%, or 20%, or 25%, or 30%, or 35%, or 40%, or 45%, or 50%, or 55%, or 60%, or 65%, or 70%, or 75%, or 80%, or 85%, or 90%, or 95% or more, inclusive of all ranges between these values. The following article, incorporated by reference in its entirety herein, describes the EREFS score: Wechsler, Clin Hepatol. 2018 July; 16(7): 1056-1063.
A clinical trial was performed to evaluate the effect of an orally disintegrating tablet (“ODT”) comprising fluticasone propionate (FP). A randomised, double-blind, placebo-controlled, multicentre, dose-ranging, and maintenance study of FP in subjects (>18 and <75 years of age) with strictures and/or rings and EoE. […]

[3] = all FP dosing groups, TOTAL (n = 43)

For “S-(fluoromethyl)-6α,9-difluoro-11β, 17-dihydroxy-16α-methyl-3-oxoandrosta-1, 4-diene-17β-carbothioate, 17-propanoate [FP]”, the Solubility ([1]; acetone, dichloromethane, ethyl acetate and chloroform) is given as “sparingly soluble”, the Solubility ([1]; dimethyl sulfoxide and dimethylformamide) is given as “freely soluble” and the Solubility ([1]; methanol and 95% ethanol) is given as “slightly soluble”. The Solubility ([1]; water) was “practically insoluble”, the “Stricture and Grade 2 Rings at Week 12, %” value ([2]; FP 1.5 mg BID (n = 12)) was 0% and the “Stricture at Week 12, %” value ([2]; FP 1.5 mg BID (n = 12)) was 42%. For the same substance, the “Stricture or Grade 2 Rings at Week 12, %” value ([2]; FP 1.5 mg BID (n = 12)) was 50%, the “Subjects with new strictures and/or rings at Week 12, %” value (from here on “Subjects … %”) ([2]; FP 1.5 mg BID (n = 12)) was 0% and the “Endoscopy Responder Rate (overall EFEFS score ≤4), %” value (shortened to “Endoscopy Responder Rate … %”) ([2]; FP 1.5 mg BID (n = 12)) was 92%. For the same substance, the “Stricture and Grade 2 Rings at Week 12, %” value ([2]; FP 1.5 mg HS (n = 13)) was 0%, the “Stricture at Week 12, %” value ([2]; FP 1.5 mg HS (n = 13)) was 8% and the “Stricture or Grade 2 Rings at Week 12, %” value ([2]; FP 1.5 mg HS (n = 13)) was 15%. For the same substance, the “Subjects … %” value ([2]; FP 1.5 mg HS (n = 13)) was 0%, the “Endoscopy Responder Rate … %” value ([2]; FP 1.5 mg HS (n = 13)) was 77% and the “Stricture and Grade 2 Rings at Week 12, %” value ([2]; FP 3 mg BID (n = 7)) was 0%. The “Stricture at Week 12, %” value ([2]; FP 3 mg BID (n = 7)) was 29%, the “Stricture or Grade 2 Rings at Week 12, %” value ([2]; FP 3 mg BID (n = 7)) was 29% and the “Subjects … %” value ([2]; FP 3 mg BID (n = 7)) was 0%. For the same substance, the “Endoscopy Responder Rate … %” value ([2]; FP 3 mg BID (n = 7)) was 86%, the “Stricture and Grade 2 Rings at Week 12, %” value ([2]; FP 3 mg HS (n = 11)) was 0% and the “Stricture at Week 12, %” value ([2]; FP 3 mg HS (n = 11)) was 9%. For the same substance, the “Stricture or Grade 2 Rings at Week 12, %” value ([2]; FP 3 mg HS (n = 11)) was 18%, the “Subjects … %” value ([2]; FP 3 mg HS (n = 11)) was 0% and the “Endoscopy Responder Rate … %” value ([2]; FP 3 mg HS (n = 11)) was 100%. For the same substance, the “Stricture and Grade 2 Rings at Week 12, %” value [2, 3] was 0%, the “Stricture at Week 12, %” value [2, 3] was 21% and the “Stricture or Grade 2 Rings at Week 12, %” value [2, 3] was 28%. For the same substance, the “Subjects … %” value [2, 3] was 0%, the “Endoscopy Responder Rate … %” value [2, 3] was 88% and the “Grade 2 Rings at Week 12, %” value ([2]; all FP dosing groups, subjects with stricture/rings at baseline) was 7%. The “Effect on strictures and/or grade 2 esophageal rings (post-hoc analysis)” value ([2]; patients with strictures and/or grade 2 esophageal rings at baseline, particularly the 3-mg HS dosing group) was “improvement or resolution of these features in most patients”.
